Measurements from US9409884B2 (Rigel Pharmaceuticals, Inc., priority 2012, dated 2016).

target: AMPK; assay: AMPK activation, enzyme-linked immunosorbent assay; type: biochemical; conditions: Table 14, compounds of Table 7
How it was run: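 AMPK activation by test compounds was measured by enzyme-linked immunosorbent assay.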

EC50 [nM] | SMILES
< 1000 | N#Cc1ccc(CN2CCC(NC(=O)c3ccc(C(=O)N4CCC(C(=O)c5ccc(OC(F)(F)F)cc5)CC4)nc3)[C@H](F)C2)cc1 (stereo partly drawn) [Compound 7-71, N-((3,4-trans)-1-(4-cyanobenzyl)-3-fluoropiperidin-4-yl)-6-(4-(4-(trifluoromethoxy)benzoyl)piperidine-1-carbonyl) nicotinamide]
< 1000 | N#Cc1ccc(CN2CCC(NC(=O)c3ccc(C(=O)N4CCC(C(=O)c5ccc(N6CCCC6)cc5)CC4)nc3)[C@H](F)C2)cc1 (stereo partly drawn) [Compound 7-72, N-((3,4-trans)-1-(4-cyanobenzyl)-3-fluoropiperidin-4-yl)-6-(4-(4-(pyrrolidin-1-yl)benzoyl)piperidine-1-carbonyl)nicotinamide]
1000 to 10000 | N#Cc1ccc(CN2CCC(NC(=O)c3ccc(C(=O)N4CCC(Oc5ccc(S(=O)(=O)C6CC6)cc5)CC4)nc3)[C@H](F)C2)cc1 (stereo partly drawn) [Compound 7-73, N-((3,4-trans)-1-(4-cyanobenzyl)-3-fluoropiperidin-4-yl)-6-(4-(4-(cyclopropylsulfonyl)phenoxy)piperidine-1-carbonyl)nicotinamide]
< 1000 | CC(=O)c1ccc(OC2CCN(C(=O)c3ccc(C(=O)NC4CCN(Cc5ccc(C#N)cc5)C[C@H]4F)cn3)CC2)cc1 (stereo partly drawn) [Compound 7-74, 6-(4-(4-acetylphenoxy)piperidine-1-carbonyl)-N-((3,4-trans)-1-(4-cyanobenzyl)-3-fluoropiperidin-4-yl)nicotinamide]

More lines, now with the values behind:

SMILES | EC50 [nM]
CS(=O)(=O)c1ccc(C(=O)C2CCN(C(=O)c3ccc(C(=O)NC4CCN(Cc5ccc(OC(F)(F)F)cc5)C[C@H]4F)cn3)CC2)cc1 (stereo partly drawn) [Compound 7-61, N-((3,4-trans)-3-fluoro-1-(4-(trifluoromethoxy)benzyl)piperidin-4-yl)-6-(4-(4-(methylsulfonyl)benzoyl)piperidine-1-carbonyl) nicotinamide] | 1000 to 10000
N#Cc1ccc(OC2CCN(C(=O)c3ccc(C(=O)NC4CCN(Cc5ccc(OC(F)(F)F)cc5)CC4F)cn3)CC2)cc1 (stereo not drawn) [Compound 7-62, 6-(4-(4-cyanophenoxy)piperidine-1-carbonyl)-N-((3,4-trans)-3-fluoro-1-(4-(trifluoromethoxy)benzyl)piperidin-4-yl)nicotinamide] | < 1000
COc1ccc(C(=O)C2CCN(C(=O)c3ccc(C(=O)NC4CCN(Cc5cnn(C)c5)C[C@H]4F)cn3)CC2)cc1 (stereo partly drawn) [Compound 7-63, N-((3,4-trans)-3-fluoro-1-((1-methyl-1H-pyrazol-4-yl)methyl)piperidin-4-yl)-6-(4-(4-methoxybenzoyl)piperidine-1-carbonyl)nicotinamide] | 10000 to 20000
Cc1cc(OC2CCN(C(=O)c3ccc(C(=O)NC4CCN(Cc5ccc(OC(F)(F)C(F)F)cc5)CC4)cn3)CC2)ccc1S(C)(=O)=O [Compound 7-64, 6-(4-(3-methyl-4-(methylsulfonyl)phenoxy)piperidine-1-carbonyl)-N-(1-(4-(1,1,2,2-tetrafluoroethoxy)benzyl)piperidin-4-yl)nicotinamide] | 1000 to 10000
N#Cc1ccc(CN2CCC(NC(=O)c3ccc(C(=O)N4CCC(Oc5ccc(C#N)cc5)CC4)nc3)[C@@H](F)C2)cc1 (stereo partly drawn) [Compound 7-67, N-((3,4-trans)-l-(4-cyanobenzyl)-3-fluoropiperidin-4-yl)-6-(4-(4-cyanophenoxy)piperidine-1-carbonyl)nicotinamide] | < 1000
N#Cc1ccc(CN2CCC(NC(=O)c3ccc(C(=O)N4CCC(C(=O)c5ccc(-n6cccn6)cc5)CC4)nc3)[C@H](F)C2)cc1 (stereo partly drawn) [Compound 7-68, 6-(4-(4-(lH-pyrazol-1-yl)benzoyl)piperidine-1-carbonyl)-N-((3,4-trans)-1-(4-cyanobenzyl)-3-fluoropiperidin-4-yl)nicotinamide] | < 1000
CC(=O)c1ccc(Oc2ccc(NC(=O)c3ccc(C(=O)N4CCC(C(=O)c5ccc(OC(F)(F)F)cc5)CC4)nc3)cn2)cc1 [Compound 7-70, N-(6-(4-acetylphenoxy)pyridin-3-yl)-6-(4-(4-(trifluoromethoxy)benzoyl)piperidine-1-carbonyl) nicotinamide] | < 1000
